This note sets out measurements from patent publication US10807952B2 (Achillion Pharmaceuticals, Inc., priority 2015, dated 2020).

SMILES strings stand for the structures. Counter-ions that a name gives are not always drawn.

Human Factor D, sequence (P00746 26-253): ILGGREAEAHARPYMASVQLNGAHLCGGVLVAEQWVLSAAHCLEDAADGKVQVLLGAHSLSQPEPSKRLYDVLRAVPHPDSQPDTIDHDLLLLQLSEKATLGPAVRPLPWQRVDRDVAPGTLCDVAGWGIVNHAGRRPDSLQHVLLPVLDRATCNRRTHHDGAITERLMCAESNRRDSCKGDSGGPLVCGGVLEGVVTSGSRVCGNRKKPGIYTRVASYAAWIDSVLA

The target of one experiment is Human Factor D (Homo sapiens (Human), UniProt P00746). The experiment is described as follows: Human Factor D assay (Z-L-Lys-SBzl / DTNB, absorbance at 405 nm). Format: biochemical. The settings on record: Table 3; Human Factor D 80 nM, assay of Example 13. The protocol:
Human Factor D (purified from human serum, Complement Technology, Inc.) at 80 nM final concentration was incubated with test compound at various concentrations for 5 minutes at room temperature in 50 mM Tris, 1M NaCl, pH 7.5. A synthetic substrate Z-L-Lys-SBzl and DTNB (Ellman's reagent) were added to final concentrations of 100 μM each. […] IC50 values were calculated by nonlinear regression of complement Factor D reaction rates as a function of test compound concentration.
For `NC(=O)c1nn(CC(=O)N2C[C@H](F)C[C@H]2C(=O)Nc2cccc(-c3ccc4[nH]c(=O)[nH]c4c3Cl)c2F)c2ccccc12` [Compound 11, 1-(2-((2S,4R)-2-((3-(4-Chloro-2-oxo-2,3-dihydro-1H-benzo[d]imidazol-5-yl)-2-fluorophenyl)carbamoyl)-4-fluoropyrrolidin-1-yl)-2-oxoethyl)-1H-indazole-3-carboxamide], the half-inhibitory concentration (IC50) (in general, the concentration at which inhibition is half-maximal) is < 1000 nM. For the molecule `N#Cc1cccc(CC(=O)N2C[C@H](F)C[C@H]2C(=O)Nc2cccc(-c3ccccc3Cl)c2F)c1` [Compound 24, (2S,4R)-N-(2′-chloro-2-fluorobiphenyl-3-yl)-1-(2-(3-cyanophenyl)acetyl)-4-fluoropyrrolidine-2-carboxamide], the half-maximal inhibitory concentration (IC50) was < 1000 nM.

In the case of `C[C@H](O)c1nc2c(Cl)c(-c3cccc(NC(=O)[C@@H]4C[C@@H](F)CN4C(=O)Cn4nc(C(N)=O)c5ccccc54)c3F)ccc2[nH]1` [Compound 14, 1-(2-((2S,4R)-2-((3-(7-Chloro-2-((S)-1-hydroxyethyl)-1H-benzo[d]imidazol-6-yl)-2-fluorophenyl)carbamoyl)-4-fluoropyrrolidin-1-yl)-2-oxoethyl)-1H-indazole-3-carboxamide], the IC50 was < 1000 nM. For `CC(=O)c1cn(CC(=O)N2C[C@H](F)C[C@H]2C(=O)Nc2cccc(Br)n2)c2ccc(S(C)(=N)=O)cc12` (stereo partly drawn) [Compound 70, (2S,4R)-1-(2-(3-Acetyl-5-(S-methylsulfonimidoyl)-1H-indol-1-yl)acetyl)-N-(6-bromopyridin-2-yl)-4-fluoropyrrolidine-2-carboxamide hydrochloride], the IC50 is < 1000 nM. The same measure, in the same setting: next, `CC(=O)c1cn(CC(=O)N2C[C@H](F)C[C@H]2C(=O)Nc2cccc(Br)n2)c2ccc(S(C)(=O)=NC(=O)OC(C)(C)C)cc12` (stereo partly drawn) [Compound 69, tert-butyl ((3-acetyl-1-(2-((2S,4R)-2-((6-bromopyridin-2-yl)carbamoyl)-4-fluoropyrrolidin-1-yl)-2-oxoethyl)-1H-indol-5-yl)(methyl)(oxo)-[…]^6-sulfanylidene)-[…]^4-azanecarboxylate e( )]: < 1000 nM.

As for `NC(=O)c1cccc(CC(=O)N2C[C@H](F)C[C@H]2C(=O)Nc2cccc(-c3ccccc3Cl)c2F)c1` [Compound 21, (2S,4R)-1-(2-(3-carbamoylphenyl)acetyl)-N-(2′-chloro-2-fluorobiphenyl-3-yl)-4-fluoropyrrolidine-2-carboxamide], the IC50 is < 1000 nM.

Turning to `CC(=O)c1cn(CC(=O)N2C[C@H](F)C[C@H]2C(=O)Nc2cccc(-c3ccc4[nH]cnc4c3Cl)c2F)c2ccccc12` [Compound 2, (2S,4R)-1-(2-(3-acetyl-1H-indol-1-yl)acetyl)-N-(3-(4-chloro-1H-benzo[d]imidazol-5-yl)-2-fluorophenyl)-4-fluoropyrrolidine-2-carboxamide], the IC50 was < 1000 nM. Same read-out and setting: next, `CC(=O)c1cn(CC(=O)N[C@H](C(=O)Nc2cccc(-c3ccccc3Cl)c2F)[C@@H](C)O)c2ccccc12` [Compound 7, (2S,3R)-2-(2-(3-Acetyl-1H-indol-1-yl)acetamido)-N-(2′-chloro-2-fluorobiphenyl-3-yl)-3-hydroxybutanamide]: < 1000 nM. Same read-out and setting: for `N#Cc1n[nH]c2cc(-c3cccc(NC(=O)[C@@H]4C[C@@H](F)CN4C(=O)Cn4nc(C(N)=O)c5ccccc54)c3F)ccc12` [Compound 32, 1-(2-((2S,4R)-2-(3-(3-cyano-1H-indazol-6-yl)-2-fluorophenyl-carbamoyl)-4-fluoropyrrolidin-1-yl)-2-oxoethyl)-1H-indazole-3-carboxamide] the value was < 1000 nM; for `NC(=O)c1nn(CC(=O)N2C[C@H](F)C[C@H]2C(=O)Nc2cccc(Br)n2)c2cc(Cn3cc(C4CC4)nn3)sc12` [Compound 29, 1-(2-((2S,4R)-2-(6-bromopyridin-2-ylcarbamoyl)-4-fluoropyrrolidin-1-yl)-2-oxoethyl)-5-((4-cyclopropyl-1H-1,2,3-triazol-1-yl)methyl)-1H-thieno[3,2-c]pyrazole-3-carboxamide], < 1000 nM; for `NC(=O)c1nn(CC(=O)N2C[C@H](F)C[C@H]2C(=O)Nc2cccc(-c3cnc4nc[nH]c4c3Cl)c2F)c2ccccc12` [Compound 50, 1-(2-((2S,4R)-2-(3-(7-chloro-1H-imidazo[4,5-b]pyridin-6-yl)-2-fluorophenyl-carbamoyl)-4-fluoropyrrolidin-1-yl)-2-oxoethyl)-1H-indazole-3-carboxamide], < 1000 nM.

In the case of `NC(=O)c1nn(CC(=O)N2C[C@H](F)C[C@H]2C(=O)Nc2cccc(-c3ccccc3Cl)c2F)c2cc(C(F)(F)F)sc12` [Compound 33, 1-(2-((2S,4R)-2-(2′-chloro-2-fluorobiphenyl-3-ylcarbamoyl)-4-fluoropyrrolidin-1-yl)-2-oxoethyl)-5-(trifluoromethyl)-1H-thieno[3,2-c]pyrazole-3-carboxamide], the IC50 was < 1000 nM. As to `CC(=O)c1nn(CC(=O)N2[C@@H]3C[C@@H]3C[C@H]2C(=O)Nc2cccc(-c3ccc4[nH]cnc4c3Cl)c2F)c2ccccc12` [Compound 5, (1R,3S,5R)-2-(2-(3-acetyl-1H-indazol-1-yl)acetyl)-N-(3-(4-chloro-1H-benzo[d]imidazol-5-yl)-2-fluorophenyl)-2-azabicyclo[3.1.0]hexane-3-carboxamide], the half-maximal inhibitory concentration (IC50) is < 1000 nM. The same measure, in the same setting: next, `NC(=O)c1cn(CC(=O)N2C[C@H](F)C[C@H]2C(=O)Nc2cccc(Br)n2)n2ccnc12` [Compound 55, 5-(2-((2S,4R)-2-(6-bromopyridin-2-ylcarbamoyl)-4-fluoropyrrolidin-1-yl)-2-oxoethyl)-5H-imidazo[1,2-b]pyrazole-7-carboxamide]: > 10000 nM.

With `NC(=O)c1nn(CC(=O)N2C[C@H](F)C[C@H]2C(=O)Nc2cccc(Br)n2)c2cc(S(F)(F)(F)(F)F)ccc12` [Compound 40, 1-(2-((2S,4R)-2-((6-Bromopyridin-2-yl)carbamoyl)-4-fluoropyrrolidin-1-yl)-2-oxoethyl)-6-(pentafluoro-λ^6-sulfanyl)-1H-indazole-3-carboxamide], the IC50 was < 1000 nM.

Turning to `CC(C)(C)OC(=O)NCC(=O)c1ccc(Cl)c(-c2cccc(NC(=O)[C@@H]3C[C@@H](F)CN3C(=O)Cn3nc(C(N)=O)c4ccccc43)c2F)c1` [Compound 51, tert-butyl 2-(3′-((2S,4R)-1-(2-(3-carbamoyl-1H-indazol-1-yl)acetyl)-4-fluoropyrrolidine-2-carboxamido)-6-chloro-2′-fluorobiphenyl-3-yl)-2-oxoethylcarbamate], the 50% inhibitory concentration (IC50) was < 1000 nM. Turning to `NC(=O)c1nn(CC(=O)N2C[C@H](F)C[C@H]2C(=O)Nc2cccc(-c3ccc4nc(N)[nH]c4c3Cl)c2F)c2ccccc12` [Compound 26, 1-(2-((2S,4R)-2-(3-(2-amino-7-chloro-1H-benzo[d]imidazol-6-yl)-2-fluorophenyl-carbamoyl)-4-fluoropyrrolidin-1-yl)-2-oxoethyl)-1H-indazole-3-carboxamide], the IC50 is < 1000 nM.

The same experiment, now with this note: Table 4; Human Factor D 80 nM, assay of Example 13.
`CC(=O)c1ccn(CC(=O)N2C[C@H](F)C[C@H]2C(=O)Nc2cccc(Br)n2)c1` [Compound 108, (2S,4R)-1-(2-(3-Acetyl-1H-pyrrol-1-yl)acetyl)-N-(6-bromopyridin-2-yl)-4-fluoropyrrolidine-2-carboxamide] came in with an IC50 of […]. The same measure, in the same setting: next, `CC(=O)c1nn(CC(=O)N2C[C@H](F)C[C@H]2C(=O)Nc2cccc(-c3nc(Cl)c4nc[nH]c4n3)c2F)c2ccccc12` [Compound 99, (2S,4R)-1-(2-(3-acetyl-1H-indazol-1-yl)acetyl)-N-(3-(6-chloro-9H-purin-2-yl)-2-fluorophenyl)-4-fluoropyrrolidine-2-carboxamide]: < 1000 nM; `CC(=O)c1nn(CC(=O)N2C[C@H](F)C[C@H]2C(=O)Nc2cccc(-c3cc(C(=O)O)c4nc[nH]c4c3)c2F)c2ccccc12` [Compound 80, 6-(3-((2S,4R)-1-(2-(3-acetyl-1H-indazol-1-yl)acetyl)-4-fluoropyrrolidine-2-carboxamido)-2-fluorophenyl)-1H-benzo[d]imidazole-4-carboxylic acid]: < 1000 nM.

Consider `COC(=O)Nc1nc2ccc(-c3cccc(NC(=O)[C@@H]4C[C@@H](F)CN4C(=O)Cn4nc(C(C)=O)c5ccccc54)c3F)c(Cl)c2[nH]1` [Compound 81, methyl (6-(3-((2S,4R)-1-(2-(3-acetyl-1H-indazol-1-yl)acetyl)-4-fluoropyrrolidine-2-carboxamido)-2-fluorophenyl)-7-chloro-1H-benzo[d]imidazol-2-yl)carbamate], for which the concentration for half-maximal inhibition (IC50) is < 1000 nM.

Turning to `Cc1cccc(NC(=O)[C@@H]2CCC(F)CCN2C(=O)Cn2cc(C(N)=O)c3cc(C4=CCCCC4)ccc32)n1` (stereo partly drawn) [Compound 106, 5-(cyclohex-1-en-1-yl)-1-(2-((2S)-5-fluoro-2-((6-methylpyridin-2-yl)carbamoyl)azepan-1-yl)-2-oxoethyl)-1H-indole-3-carboxamide], the IC50 is > 10000 nM. On to `CC(=O)c1nn(CC(=O)N2C[C@H](F)C[C@H]2C(=O)Nc2cccc(-c3ccc4nc(N)sc4c3)c2F)c2ccccc12` [Compound 101, (2S,4R)-1-(2-(3-acetyl-1H-indazol-1-yl)acetyl)-N-(3-(2-aminobenzo[d]thiazol-6-yl)-2-fluorophenyl)-4-fluoropyrrolidine-2-carboxamide], for which the concentration for half-maximal inhibition (IC50) was < 1000 nM. The same measure, in the same setting: for `CC(=O)c1nn(CC(=O)N2C[C@H](F)C[C@H]2C(=O)Nc2cccc(-c3ccc4[nH]c(=O)[nH]c(=O)c4c3)c2F)c2ccccc12` [Compound 102, (2S,4R)-1-(2-(3-acetyl-1H-indazol-1-yl)acetyl)-N-(3-(2,4-dioxo-1,2,3,4-tetrahydroquinazolin-6-yl)-2-fluorophenyl)-4-fluoropyrrolidine-2-carboxamide] the value was < 1000 nM. Same read-out and setting: for `NC(=O)c1nn(CC(=O)N2C[C@H](F)C[C@H]2C(=O)Nc2cccc(-c3cc(Cl)c4[nH]ccc4c3)c2F)c2ccccc12` [Compound 90, 1-(2-((2S,4R)-2-((3-(7-chloro-1H-indol-5-yl)-2-fluorophenyl)carbamoyl)-4-fluoropyrrolidin-1-yl)-2-oxoethyl)-1H-indazole-3-carboxamide] the value was < 1000 nM.
